These results are taken from PubChem BioAssay (NCI).

SMILES strings stand for the structures.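 Growth conditions: 96-well plates. Treatment: test compound, 48 hours, 5 concentrations. Analysis: linear interpolation between bracketing concentrations; unreached endpoints set to highest concentration. Abbreviation: GI50, concentration required for 50% inhibition of growth. TGI marks complete inhibition of growth.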 A value given as a limit tells only on which side of the number the result lay.

What all share (assay): inhibition of tumour cell growth, NCI panel, 48 h
In assay [1] the test system is SK-MEL-2 melanoma.
Assay [2] deals with PC-3 prostate.
The test system of assay [3] is U251 CNS.
The subject of assay [4] is RPMI-8226 leukemia.
Assay [5] relates to CCRF-CEM leukemia.
The test system of assay [6] is TK-10 renal.
The subject of assay [7] is SNB-19 CNS.
Assay [8] relates to HCT-116 colon.
The test system of assay [9] is OVCAR-4 ovarian.
In assay [10] the test system is SF-295 CNS.

`Cc1cc(CC(C)CC(C)(C)C)n(O)c(=O)c1` (stereo not given) (tested in a mixture with another compound): the GI50 in [1] was 0.766 µM; in assay [2] it was 0.601 µM; in assay [3], 0.4 µM; in assay [4], 0.365 µM; in assay [5], 0.261 µM; in assay [6], 5.09 µM. The GI50 was 0.519 µM in assay [7], 0.406 µM in assay [8], 0.358 µM in [9] and 0.447 µM in [10]. For the same compound, the TGI in [1] was more than 100 µM; in [2] it was 40 µM; in assay [3], 13.9 µM; in assay [4], 8.06 µM; in assay [5], 1.3 µM; in assay [6] it was more than 74.7 µM. In addition, the TGI is more than 100 µM in assay [7], 13.2 µM in assay [8], more than 84.4 µM in assay [9] and 18.5 µM in assay [10].
On to `C=C1CCC2C(C)(COC(=O)CC)C(OC(=O)CC)CCC2(C)C1C/C=C1/C(=O)OCC1OC(=O)CC` (stereo not given), for which the GI50 is 1.44 µM in assay [1]; 2.17 µM in assay [2]; 1.3 µM in assay [3]; 3.77 µM in assay [4]; 0.558 µM in assay [5]; 2.04 µM in assay [6]. Further, the GI50 in assay [7] is 3.74 µM; in assay [8], 1.14 µM; in [9], 2.33 µM; in assay [10], 1.7 µM. Besides, the TGI in [1] was 3.02 µM; in assay [2] it was 4.91 µM; in assay [3], 2.59 µM; in [4], more than 100 µM; in assay [5] it was more than 100 µM; in [6], 5.59 µM. In addition, the TGI in assay [7] was determined as 14.7 µM; in assay [8], 2.55 µM; in [9], 6.9 µM; in assay [10], 3.99 µM.
As to `CCOC(=O)CC1C(COC(=O)NC)OC(n2cnc3c(NC(=O)Nc4ccccc4)ncnc32)C1O[Si](C)(C)C(C)(C)C` (stereo not given), the GI50 in assay [1] was 13.2 µM; in assay [2], 2.87 µM; in [3], 7.57 µM; in [4], 2.16 µM; in [5], 3.23 µM; in [6], 10.7 µM. In addition, the GI50 is 49.2 µM in [7], 2.33 µM in assay [8], 10.7 µM in assay [9] and 2.83 µM in assay [10]. Moreover, the TGI in [1] was 57.3 µM; in [2], 25.4 µM; in assay [3], 32.3 µM; in assay [4], 5.48 µM; in assay [5] it was more than 100 µM; in assay [6] it was 50 µM. For the same compound, the TGI is more than 100 µM in assay [7], 5.38 µM in assay [8], more than 100 µM in assay [9] and 15.1 µM in assay [10].
Consider `O=C(O)C(Cl)(c1ccccc1)c1ccccc1`, for which the TGI in assay [1], in assay [2], in assay [3], in [4], in assay [5] and in [6] was more than 100 µM throughout. Moreover, the TGI in assay [7], in assay [8], in assay [9] and in assay [10] was more than 100 µM each time.
For the compound `CC[N+]1(C)CCC(O)(c2ccc(OC)cc2)C(C(=O)c2ccc(OC)cc2)C1` (stereo not given), the TGI in [1] was 34.3 µM; in assay [2], 31.8 µM; in assay [3], 33 µM; in assay [4] it was 5.92 µM; in assay [5], 4.94 µM; in assay [6] it was 20.4 µM. Moreover, the TGI worked out at 47.7 µM in [7], 28.1 µM in assay [8], 51.2 µM in [9] and 38.9 µM in assay [10].
On to `CC(C)(C)[Si](C)(C)OC1[C@@H](O[Si](C)(C)C(C)(C)C)[C@@H](CNC(=O)NC(=O)CCl)O[C@H]1n1cnc2c(NC(=O)Nc3ccccc3)ncnc21` (stereo not given in full), for which the GI50 was 1.13 µM in [1]; 0.381 µM in [2]; 0.51 µM in [3]; 0.167 µM in [4]; 0.0441 µM in [5]; 0.978 µM in assay [6]. The GI50 in assay [7] is 1.11 µM; in assay [8], 0.719 µM; in assay [9], 0.7 µM; in assay [10] it was 0.235 µM. The TGI is 2.01 µM in assay [1]; 1.19 µM in assay [2]; 1.21 µM in assay [3]; 0.682 µM in assay [4]; 0.125 µM in [5]; 1.88 µM in [6]. For the same compound, the TGI in [7] was 3.96 µM; in [8], 1.51 µM; in assay [9], 1.57 µM; in assay [10], 0.922 µM.
Take `N#CC1=C(N)NC(N2CCOCC2)=NC12Nc1ccccc1N2`: the GI50 in assay [1] was 20.1 µM; in assay [2], 46.1 µM; in assay [3] it was 52.6 µM; in assay [4] it was 24.2 µM; in assay [5], more than 100 µM; in [6], 10.7 µM. The GI50 in assay [7] is 40 µM; in assay [8] it was 16 µM; in assay [9] it was more than 100 µM; in assay [10] it was 32.6 µM. The TGI in [1] was 47.4 µM; in assay [2], more than 100 µM; in assay [3] it was more than 100 µM; in assay [4], more than 100 µM; in assay [5], more than 100 µM; in assay [6], 46.6 µM. For the same compound, the TGI in assay [7], in [8], in assay [9] and in [10] was more than 100 µM in each case.
On to `N#CCN/C=C\C(=O)c1ccc(Cl)cc1`, for which the GI50 was 20 µM in assay [1]; 29.5 µM in [2]; 70.7 µM in [3]; 22.6 µM in assay [4]; 0.398 µM in assay [5]; 31.1 µM in assay [6]. Also, the GI50 in [7] was 31.4 µM; in assay [8], 29.9 µM; in assay [9], 76.9 µM; in assay [10], 28 µM. The TGI in assay [1] is 53.9 µM; in [2] it was more than 100 µM; in assay [3], more than 100 µM; in assay [4], more than 100 µM; in assay [5] it was more than 100 µM; in [6], more than 100 µM. Besides, the TGI in assay [7], in assay [8], in assay [9] and in assay [10] was more than 100 µM throughout.
